Columns and labels:
Type in all cases: cell-based
various cancer cells = test: MTT proliferation assay, summary over various cancer cells; conditions: Table 2
Procedure: The effects of test compounds on proliferation of various cancer cells was examined by 3-(4,5-dimethylthiazol-2-yl)-2,5-diphenyltetrazolium bromide (MTT, Sigma) assay in a dose dependent manner. In the MTT assay, colon, liver, cervix, ovary, and breast cancer cell lines were treated with test compounds at various concentrations. Living cancer cells reduce MTT to dark blue MTT formazan that would be measured by absorbance.
Colon cancer cells, HCT116, DLD-1 and HT29, cervix cancer cells, HeLa and CaSki, ovary cancer cells, SKOV-3, 2774 and OVCAR-3, liver cancer cells, SK-Hep-1, PLCPRF5 and HepG2, and breast cancer cells, ZR75-1 and MDA-MB 231 were seeded at an initial density of 3000 cells per well in 96-well plates. After attachment of cells to the walls of the wells, the medium containing fresh retinoid was treated with various concentrations (0.5 μM, 1 μM, 2.5 μM, 5 μM, 10 μM) for 48 hours. 50 μl of MTT solution (2 mg/ml in PBS) was added to cell culture media. The reaction micture was incubated at 37° C. in a 5% CO2 atmosphere for 4 hours. The supernatant was removed and 150 μl of DMSO was added. The optical density was measured spectrophotometrically at 550 nm. […] For other retinoid derivatives according to the present invention, absorbances were measured by this procedure and IC50 values, concentrations required for 50% growth inhibition, were determined.

MMP-3 mRNA expression = test: RT-PCR of MMP-3 mRNA in HCT116; conditions: HCT116, 1 μM, 36 hours
Procedure: Previously, it was shown that the synthetic retinoid derivatives inhibit the transcriptional activity of AP-1. Also, it is well known that MMP (matrix metalloproteinase), a main target gene of AP-1 is involved in metastasis of cancer cells. Therefore, the inhibitive effects of the retinoid derivatives on metastasis of cancer was examined by RT-PCR analysis. Colon cancer HCT116 cells were treated with 1 μM retinoid for 36 hours. RNA was isolated from the cells and mRNA expression levels of MMP-1, -2 and -3 were analyzed by RT-PCR. […] As the control, GAPDH was used and it was confirmed that its expression was not affected by retinoid. Meanwhile, the expression level of MMP-3 was affected weakly by KCBG40, intermediately by KCBG41 but strongly by KCBG10 (FIG. 9).

[1] = test system: RAR subfamilies (RARα, RARβ, RARγ); test: CAT ELISA reporter assay of retinoid receptors (Experimental Example 4)
Procedure: As the reporter gene, chloramphenicol acetyltransferase (CAT) gene was used. […] The colon cancer cells were plated at 10^6 in 6-well. At next day, the mixture of DNA (2 μg) and SuperFect reagent was added to the cells. After overnight transfection, the media were exchanged with fresh media containing retinoid at various concentrations for 24 hours and washed with cold 1×PBS. The cells were collected, suspended in 100 μl of 0.25M Tris-HCl (pH 7.6) and lysed by 3 freezing-thawing cycles. After centrifugation (12,000×g, 10 min, 4° C.), 100 μl of the supernatant was recovered. 10 μl of the recovered supernatant was tested for activity of β-galactosidase according to standard prosedures (Sambrook et al., 1989) and 50 μl of the recovered supernatant were tested for activity of the reporter by the CAT ELISA (Boeringer Mannheim, Germany) method. The obtained data for activity of the reporter was normalized with respect to β-gal activity for comparison.

retinoid receptor activity relative to ATRA and HPR ([1]; three RAR subfamilies, as the concentration increased)	SMILES	anti-cancer activity in cells other than HepG (various cancer cells)	effect on MMP-3 mRNA expression level (MMP-3 mRNA expression)	retinoid receptor activity (CAT reporter) ([1]; concentration dependence)
–	CC1=C(/C=C/C(C)=C/C=C/C(C)=C/C(=O)O)C(C)(C)CCC1 [ATRA, All-trans-retinoic acid, reference compound]	very a low anti-cancer activity	–	–
–	CCCC(=O)Oc1cc(O)ccc1NC(=O)/C=C(C)/C=C/C=C(C)/C=C/C1=C(C)CCCC1(C)C [KCBG10, 2.2-[(2E,4E,6E,8E)-3,7-Dimethyl-9-(2,6,6-trimethylcyclohex-1-enyl)-nona-2,4,6,8-tetraenoylamino]-5-hydroxyphenylbutanoate]	–	strongly	did not have activity at a low concentration but showed an increase of activity as the concentration increased
about 50%	CCCC(=O)Nc1cc(NC(=O)/C=C(C)/C=C/C=C(C)/C=C/C2=C(C)CCCC2(C)C)ccc1O [KCBG41, (2E,4E,6E,8E)-[3,7-dimethyl-9-(2,6,6-trimethylcyclohex-1-enyl)-nona-2,4,6,8-tetraenoylamino]-(3-butyrylamino-4-hydroxy)phenylamide]	–	intermediately	–
